Like-named read-outs stand apart in the source and are kept apart here.
Tests used:
[1] = system: patients with intermittent claudication; details: cited from earlier work
[2] = system: HUVEC cells; experiment: Adenosine release from HUVEC by liquid chromatography; assay type: cell-based, human; details: over time, normoxic and hypoxic
Description: For this reason, studies were undertaken to determine the effect of certain poloxamers in vitro in human vascular endothelial cells (HUVEC) and human skeletal muscle myoblast (HSMM) cells under normoxic and hypoxic (5% O2) conditions. Production of adenosine, cytokines, growth factors, or a combination of these biologically relevant molecules was measured after exposure to either poloxamer-188 (˜BASF Pluronic F-68), poloxamer-235 (˜BASF Pluronic P85), cilostazol, Del-1 protein, or medium alone. Monitoring for generation of adenosine was conducted by HPLC. […] This increased level of adenosine was seen over time in both hypoxic and normoxic cells exposed to poloxamer-235.
HUVEC and HSMM cells are harvested after fourth population doubling from the time of purchase by trypsinization. The cells are suspended in appropriate complete medium and plated in a 60×15 culture dishes at the density of […] per well and incubated for 24 hrs. The cells are fed with EBM (HUVEC cells) and SkBM (HSMM cells) culture medium containing 0.5% FCS for 24 hrs to growth-arrest the cells. […]

[3] = system: patients with intermittent claudication; details: Lederman et al. 2002; cited from earlier work
[4] = system: mice; experiment: Subcutaneous Matrigel implant model; assay type: in vivo, mouse
From the text: Poloxamer Inhibition of Inflammation in Murine Study: Initial studies incorporating either FGF (positive control), saline (negative control), Del-1 protein (another known angiogenic agent) or poloxamer-188 into Matrigel that was placed subcutaneously into the lower abdomen of mice yielded interesting results. Matrigel Basement Membrane Matrix (BD Biosciences) is a solubilized basement membrane preparation extracted from the Engelbreth-Holm-Swarm (EHS) mouse sarcoma. Its major component is laminin, followed by collagen IV, heparan sulfate proteoglycans, entactin and nidogen. In the Matrigel angiogenesis model, poloxamer-188 was compared to other known angiogenic agents such as fibroblast growth factor (FGF, positive control), Del-1 protein, or saline as a negative control.
After gaining experience with the system, it was felt that the quantity of Del-1 used should be titrated to see if a dose response with the protein could be distinguished, and to alter the ratio of P188 to matrigel. In the first round of studies it was noted that the 5% P188 concentration added to the Matrigel appeared to inhibit polymerization of the Matrigel. […] Therefore, in the repeat in vivo experiment the Matrigel and poloxamer concentrations were altered such that the initial concentrations were similar to those that yielded good polymerization, but still gave a final concentration of 5% P188 (the concentration tested in clinical trials).
Matrigel implants were placed subcutaneously in the lower abdominal/inguinal region of mice and harvested 4 to 7 days later.

[5] = system: CD-1 mice; experiment: Murine hindlimb ischemia model; assay type: in vivo, mouse; details: repeated intramuscular injections
From the text: A gene-based approach to Del-1 delivery using a plasmid vector was developed for the purpose of enhancing relatively sustained local concentrations with a consequent reduction in systemic exposure to the angiogenic growth factor while at the same time avoiding known adverse effects that may arise with the use of a viral platform.
Results from preclinical studies with recombinant murine Del-1 protein and with formulated Del-1 plasmid compared favorably to results obtained with bFGF and VEGF165. In-house research provided for selection of the non-ionic polymer poloxamer 188 as an important constituent for a pharmaceutical formulation of the Del-1 gene encoded on plasmid DNA. The poloxamer formulation was developed after considerable research to provide for a compound that would give increased expression over DNA in saline.
The effects of formulated hDel-1 plasmid versus formulated VEGF165 plasmid and empty plasmid were investigated in a murine hindlimb ischemia model. Bilateral ischemia was induced in hindlimbs of CD-1 mice by ligation of the femoral artery. A control group underwent sham surgery without femoral artery ligation. […] Exercise tolerance was then determined at weekly intervals through four weeks post surgery.

Molecule | peak walking time ([1]; 100 mg twice/day) | observed difference in change in PWT versus placebo ([1]; Dawson et al. 1998) | side effects (headaches, palpitations, gastrointestinal disturbances) ([1]; clinical trials) | adenosine in the supernatant [2] | observed difference in change in PWT versus placebo [3] | cellular response of Matrigel implant ([4]; Del-1 less than 200 ugs/ml) | vessel growth in Matrigel angiogenesis model ([4]; first round of studies) | morphologic pattern of Matrigel implant (cellularity) ([4]; harvested 4 to 7 days, H&E, Del-1 at 200 ug/ml) | vascular perfusion [5]
O=C1CCc2cc(OCCCCc3nnnn3C3CCCCC3)ccc2N1 [cilostazol] | improve peak walking time | 2.00 min | high incidence of side effects | least stimulatory | – | – | – | – | –
recombinant fibroblast growth factor-2: recombinant fibroblast growth factor-2 of the TRAFFIC study | – | – | – | – | 1.17 min | – | – | – | –
Del-1 protein: Developmentally regulated Endothelial Locus-1, an endothelial cell stimulating angiogenic protein (protein, UniProt O43854 24-480, looked up) EGF-like repeat and discoidin …: DICDPNPCENGGICLPGLADGSFSCECPDGFTDPNCSSVVEVASDEEEPTSAGPCTPNPCHNGGTCEISEAYRGDTFIGYVCKCPRGFNGIHCQHNINECEVEPCKNGGICTDLVANYSCECPGEFMGRNCQYKCSGPLGIEGGIISNQQITASSTHRALFGLQKWYPYYARLNKKGLINAWTAAENDRWPWIQINLQRKMRVTGVITQGAKRIGSPEYIKSYKIAYSNDGKTWAMYKVKGTNEDMVFRGNIDNNTPYANSFTPPIKAQYVRLYPQVCRRHCTLRMELLGCELSGCSEPLGMKSGHIQDYQITASSIFRTLNMDMFTWEPRKARLDKQGKVNAWTSGHNDQSQWLQVDLLVPTKVTGIITQGAKDFGHVQFVGSYKLAYSNDGEHWTVYQDEKQRKDKVFQGNFDNDTHRKNVIDPPIYARHIRILPWSWYGRITLRSELLGCTEEE | – | – | – | least stimulatory | – | substantially less cellular response | light to moderate vessel growth | high cellularity | increased vascular perfusion

— patent US20110044929A1, “FORMULATIONS AND METHODS FOR TREATMENT OF INFLAMMATORY DISEASES” (Vical Incorporated, priority 2004, published 2011)
